The nature of the data set: physchem. It is filed as physicochemical. The conditions noted are these: water. On the procedure:
In order to determine its water solubility, an excess of metronidazole was added to water, after which the mixture was stirred for 3 days at room temperature.

SMILES strings stand for the structures. In brackets after ≈: the same amount, converted by molar mass.

Take `Cc1ncc([N+](=O)[O-])n1CCO` [metronidazole]: the thermodynamic solubility – broadly, solubility found after equilibrating the solid with the medium – at 72 h amounted to 8200 µg/mL (≈ 47.9 mM).
